Assay results taken from paper PMC8370248, “Key Metabolic Enzymes Involved in Remdesivir Activation in Human Lung Cells” (Antimicrobial Agents and Chemotherapy, 2021).
Where two headings read alike, the source gives them in different places.

Legend:
CES1c = target: T1, CES1c (Homo sapiens, UniProt P23141); experiment: CES1c-catalyzed hydrolysis of 4-NPA, inhibition by inhibitors; type: biochemical
T1 construct: purchased Corning Incorporated (Corning, NY); host or cells: baculovirus-infected insect cells (microsomal fraction, Supersomes)
T1 sequence (P23141 18-566 isoform P23141-3 limits assumed): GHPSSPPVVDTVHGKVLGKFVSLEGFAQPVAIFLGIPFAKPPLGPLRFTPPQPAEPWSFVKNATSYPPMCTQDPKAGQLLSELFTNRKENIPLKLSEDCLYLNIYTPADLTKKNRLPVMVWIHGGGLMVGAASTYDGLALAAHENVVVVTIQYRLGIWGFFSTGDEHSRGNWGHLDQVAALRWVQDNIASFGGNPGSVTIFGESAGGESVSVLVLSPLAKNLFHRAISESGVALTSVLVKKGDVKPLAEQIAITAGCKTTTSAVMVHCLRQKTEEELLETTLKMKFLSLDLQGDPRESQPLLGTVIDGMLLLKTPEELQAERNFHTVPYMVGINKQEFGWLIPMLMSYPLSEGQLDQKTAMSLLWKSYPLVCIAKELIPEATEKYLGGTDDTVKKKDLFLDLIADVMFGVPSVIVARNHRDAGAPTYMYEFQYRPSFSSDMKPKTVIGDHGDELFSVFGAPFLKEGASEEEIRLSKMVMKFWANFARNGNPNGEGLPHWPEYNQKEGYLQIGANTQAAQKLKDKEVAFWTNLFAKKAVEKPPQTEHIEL
Method: (§1) Threefold dilutions of compounds were prepared in 100% DMSO. Compounds (100 μM to 0.005 μM), CES isozymes, and substrate 4-NPA were mixed in a 100-μl reaction volume consisting of 100 mM potassium phosphate buffer (pH 7.4) and 1% DMSO. […] The slopes of the progress curves were used to calculate reaction rates. Reaction rates were plotted as a function of inhibitor concentration, and the data were fit with a four-parameter logistic model using GraphPad Prism software (version 8; La Jolla, CA) to yield IC50 values.
(§2) Data were analyzed using GraphPad Prism 8.0. IC50 values were calculated by nonlinear regression analysis using the following sigmoidal dose-response (variable slope) equation (four-parameter logistic equation). Y=100/[1+10^(logIC50−X)×HillSlope] where X is the log of the concentration of the test compound, and Y is the response. The IC50 values were calculated as an average of three or more independent experiments.

HINT1 [1] = target: T2, HINT1 (Homo sapiens, UniProt P49773); experiment: HINT1-catalyzed hydrolysis of RDV MetX, inhibition; type: biochemical
T2 construct: purchased Abcam (Cambridge, MA)
T2 sequence (P49773 whole entry): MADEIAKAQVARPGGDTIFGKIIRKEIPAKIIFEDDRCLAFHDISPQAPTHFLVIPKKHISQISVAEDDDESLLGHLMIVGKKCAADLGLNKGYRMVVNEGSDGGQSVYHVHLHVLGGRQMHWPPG
Method: Following protein precipitation and centrifugation, 150 μl of supernatants were dried down and reconstituted with 250 μl water. All samples were analyzed by LC-MS, and PAR values were used for quantification. Disappearance of the MetX substrate was monitored over the incubation time period. Three experiments were conducted with two replicates each experiment, and data are reported as averages from three experiments.
as §2

NHBE cells = experiment: Effect of hydrolase inhibitors on GS-443902 formation from RDV in NHBE cells; type: cell-based, human; details: coincubation with 1 μM RDV, 24 h, three donors
Method: Cells were harvested at 24 h after compound addition, and the GS-443902 levels were assessed by an LC-MS method.
NHBE cells (5 × 10^5) in 2 ml of BEGM media were seeded in each well of a 6-well plate and incubated overnight at 37°C and 5% CO2. […] Twenty-four hours post-compound addition, the cells were washed 3× with 1 ml of cold 1× Tris-HCl (pH 7.0)-buffered saline, and cells were harvested in 500 μl dry ice-cold extraction buffer (0.1% potassium hydroxide and 67 mM ethylenediamine tetra-acetic acid in 70% methanol, containing 0.5 μM chloro-ATP as internal standard) and transferred to a deep-well block on dry ice. The deep-well block was stored at −80°C until processing. At the time of harvest, two untreated wells for each donor were trypsinized, and the cell counts were determined. All compound combinations were tested in duplicate in cells from three donors.
Each NHBE sample was treated with 500 μl of dry ice-cold extraction buffer (0.1% potassium hydroxide and 67 mM ethylenediamine tetra-acetic acid in 70% methanol, containing 0.5 μM chloro-ATP as internal standard). The above solution was vortexed for 5 min and then centrifuged at 20,000 × g for 10 min. The supernatant was transferred to a clean 96-deep-well plate and then dried on an evaporator. Once dry, samples were reconstituted with 80 μl of 1 mM ammonium phosphate buffer (pH 7) and transferred to a 96-short-well plate for analysis. An aliquot of 10 μl was injected into a Sciex QTrap 6500+ liquid chromatography-tandem mass spectrometry (LC-MS/MS) system run under the multiple reaction monitoring (MRM) operation mode.
Standard calibration curves for NHBE were constructed based on pmol of compound per sample. […] Using the calibration curve, the amount of the metabolites was quantified in each sample, and the intracellular concentrations (pmol/million cells) were determined by dividing the value by the cell number in the sample.

CES1 = test system: CES1; design: method as in PMID 20801890, PMID 25870059; details: published data ref 7, 9; cited from earlier work
CES1b = target: T3, CES1b (Homo sapiens, UniProt P23141); experiment: CES1b-catalyzed hydrolysis of 4-NPA, inhibition by inhibitors; type: biochemical
T3 construct: purchased Corning Incorporated (Corning, NY); host or cells: baculovirus-infected insect cells (microsomal fraction, Supersomes)
T3 sequence (P23141 18-567): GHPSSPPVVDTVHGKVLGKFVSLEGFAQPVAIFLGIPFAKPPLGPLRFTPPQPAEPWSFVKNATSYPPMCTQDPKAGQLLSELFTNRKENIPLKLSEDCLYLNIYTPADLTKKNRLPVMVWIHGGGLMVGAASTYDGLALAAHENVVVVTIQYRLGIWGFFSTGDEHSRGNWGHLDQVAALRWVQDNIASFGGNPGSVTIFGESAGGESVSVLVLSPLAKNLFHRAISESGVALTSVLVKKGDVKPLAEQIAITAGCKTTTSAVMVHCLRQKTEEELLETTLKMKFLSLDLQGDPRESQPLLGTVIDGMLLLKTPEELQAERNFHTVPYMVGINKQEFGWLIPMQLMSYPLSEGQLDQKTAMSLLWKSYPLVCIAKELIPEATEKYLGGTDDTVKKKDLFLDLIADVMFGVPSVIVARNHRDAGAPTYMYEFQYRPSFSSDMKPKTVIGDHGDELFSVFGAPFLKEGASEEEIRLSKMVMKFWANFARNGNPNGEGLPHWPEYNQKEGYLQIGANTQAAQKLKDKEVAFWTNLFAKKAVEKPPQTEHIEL
Method: as §1, §2

CatA [2] = target: T4, CatA (Homo sapiens, UniProt P10619); experiment: CatA-catalyzed hydrolysis of fluorogenic peptide substrate, inhibition; type: biochemical; design: purchased R&D Systems (Minneapolis, MN)
T4 sequence (P10619 29-326 limits assumed): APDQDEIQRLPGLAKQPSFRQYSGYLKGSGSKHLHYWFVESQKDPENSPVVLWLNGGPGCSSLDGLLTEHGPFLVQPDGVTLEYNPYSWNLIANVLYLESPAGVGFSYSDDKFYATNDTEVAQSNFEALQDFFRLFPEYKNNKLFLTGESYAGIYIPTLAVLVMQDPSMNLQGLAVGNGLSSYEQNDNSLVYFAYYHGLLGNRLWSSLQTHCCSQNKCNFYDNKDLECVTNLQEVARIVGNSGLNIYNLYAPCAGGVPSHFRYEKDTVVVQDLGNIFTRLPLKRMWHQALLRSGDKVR
T4 sequence (P10619 327-480 limits assumed): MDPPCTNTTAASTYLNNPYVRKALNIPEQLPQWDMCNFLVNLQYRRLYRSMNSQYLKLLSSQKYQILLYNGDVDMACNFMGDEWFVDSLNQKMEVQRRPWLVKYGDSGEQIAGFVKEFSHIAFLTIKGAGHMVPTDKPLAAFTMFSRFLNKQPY
Method: The reaction was studied under both pH 6.5 (to match CatA-catalyzed RDV reaction conditions with minimal acidic hydrolysis) and pH 5.5 (to mimic acidic lysosomal environment). CatA was initially activated following the manufacturer’s protocol. […] Threefold dilutions of compounds were prepared in 100% DMSO. The final DMSO concentration was kept constant at 1% (vol/vol). […] The slopes of the progress curves were used to measure reaction rates. Reaction rates were plotted as a function of inhibitor concentration, and the data were fit with a four-parameter logistic fit using GraphPad Prism software to yield IC50 values.
as §2

CES2 = target: T5, CES2 (Homo sapiens, UniProt O00748); experiment: CES2-catalyzed hydrolysis of 4-NPA, inhibition by inhibitors; type: biochemical
T5 construct: purchased Corning Incorporated (Corning, NY); host or cells: baculovirus-infected insect cells (microsomal fraction, Supersomes)
T5 sequence (O00748 27-559): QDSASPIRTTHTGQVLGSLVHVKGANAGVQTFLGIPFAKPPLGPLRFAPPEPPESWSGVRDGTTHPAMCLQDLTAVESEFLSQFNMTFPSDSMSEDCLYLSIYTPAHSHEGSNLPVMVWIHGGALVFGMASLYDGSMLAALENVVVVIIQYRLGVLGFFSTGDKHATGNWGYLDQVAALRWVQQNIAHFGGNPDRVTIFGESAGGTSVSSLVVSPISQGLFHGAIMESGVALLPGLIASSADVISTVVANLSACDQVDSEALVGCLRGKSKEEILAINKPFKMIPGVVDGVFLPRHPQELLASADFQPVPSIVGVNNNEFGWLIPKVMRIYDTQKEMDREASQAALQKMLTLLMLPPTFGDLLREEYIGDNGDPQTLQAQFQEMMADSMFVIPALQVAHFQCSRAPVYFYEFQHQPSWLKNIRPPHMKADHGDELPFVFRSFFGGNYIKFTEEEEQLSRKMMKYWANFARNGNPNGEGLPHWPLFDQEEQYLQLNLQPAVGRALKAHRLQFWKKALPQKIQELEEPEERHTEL
Method: as §1, §2

SARS-CoV-2 = experiment: microbe, parasite or virus in culture; type: cell-based; details: compound alone (plus DMSO), A549-hACE2 cells, 48 h
CatA [3] = test system: CatA; design: method as in PMID 20801890, PMID 25870059; details: published data ref 7, 9; cited from earlier work
[4] = A549-hACE2 cytotoxicity analysis; details: human, A549-hACE2 cells
Method: The cytotoxicity of compounds was determined in A549-hACE2 cells in the following manner. A549-hACE2 cells (12,000 cells per well in medium containing 2% FBS) were plated into a black opaque 96-well plate (Corning). The next day, 3-fold serial dilutions of compounds were prepared in DMSO in a manner to normalize the DMSO concentration among all cell culture wells. The compounds were further diluted 500-fold in the culture medium containing 2% FBS. Spent medium from overnight incubation was aspirated, 100 μl of diluted compound solutions were added to each well, and cultures were returned to 37°C with 5% CO2. […] Luciferase signals were measured using an Envision microplate reader. The relative luciferase signals were calculated by normalizing the luciferase signals of the compound-treated groups to that of the DMSO-treated groups (set as 100%). The relative luciferase signal (y axis) versus the compound concentration (x axis) was plotted in software GraphPad Prism 8 (version 8). […] Three independent experiments were performed with technical duplicates.

HINT1 [5] = target: HINT1; design: method as in PMID 31503445; details: previously reported by Shah et al. ref 17; read-out: dissociation constant [Kd], HINT1; cited from earlier work
[6] = test system: cellular activation of sofosbuvir (SOF); experiment: Effect of HINT1 inhibitors on cellular activation of sofosbuvir; type: cell-based; details: data not shown
[7] = substrate 4-NPA, read-out: Inhibition (IC50) of enzyme activities, CES1c
[8] = substrate RDV MetX, read-out: Inhibition (IC50) of enzyme activities, HINT1
[9] = substrate 4-NPA, read-out: Inhibition (IC50) of enzyme activities, CES1b
[10] = pH 5.5, fluorogenic peptide substrate, read-out: Inhibition (IC50) of enzyme activities, CatA pH 5.5
[11] = pH 6.5, fluorogenic peptide substrate, read-out: Inhibition (IC50) of enzyme activities, CatA pH 6.5

| Compound | IC50 (CES1c; [7]) [µM] | IC50 (HINT1 [1]; [8]) [µM] | Effect on GS-443902 formation in NHBE cells (NHBE cells) | IC50 (CES1) [µM] | IC50 (CES1b; [9]) [µM] | IC50 (CatA [2]; [10]) [µM] | IC50 (CatA [2]; [11]) [µM] | IC50 (CES1c) [µM] | IC50 (HINT1 [1]) [µM] | IC50 (CES2) [µM] | EC50 (SARS-CoV-2) [µM] | IC50 (CES1b) [µM] | IC50 (CatA [2]; IC50 values range for CatA, range over pH 6.5 and pH 5.5) [µM] | IC50 (CatA [2]; Inhibition (IC50) of enzyme activities, CatA pH 5.5, pH 5.5, fluorogenic peptide substrate) [µM] | IC50 (CatA [2]; Inhibition (IC50) of enzyme activities, CatA pH 6.5, pH 6.5, fluorogenic peptide substrate) [µM] | IC50 (CatA [3]) [µM] | CC50 at 48 h [4] [µM] | IC50 (CES2; substrate 4-NPA, read-out: Inhibition (IC50) of enzyme activities, CES2) [µM] | Kd (HINT1 [5]) [µM] | Effect on cellular activation of sofosbuvir (SOF) [6] |
| --- | --- | --- | --- | --- | --- | --- | --- | --- | --- | --- | --- | --- | --- | --- | --- | --- | --- | --- | --- | --- |
| O=[N+]([O-])c1ccc(OP(=O)(O)Oc2ccc([N+](=O)[O-])cc2)cc1 [BNPP, bis(4-nitrophenyl)phosphate] | 14 ± 5.6 | > 100 | did not cause a significant change in GS-443902 formation | 0.11 | 0.75 ± 0.12 | > 100 | > 100 | – | – | – | – | – | – | – | – | – | – | – | – | – |
| CCC[C@H](NC(=O)[C@@H]1[C@H]2CCC[C@H]2CN1C(=O)[C@@H](NC(=O)[C@@H](NC(=O)c1cnccn1)C1CCCCC1)C(C)(C)C)C(=O)C(=O)NC1CC1 [Telaprevir] | – | – | dose-dependent inhibition of GS-443902 formation | – | – | – | – | > 100 | > 100 | > 100 | > 50 | > 100 | 0.078 to 0.34 | 0.34 ± 0.06 | 0.078 ± 0.009 | 0.21 | 29.2 | – | – | – |
| Nc1nc2c(ncn2[C@@H]2O[C@H](COC(=O)NCCc3c[nH]c4ccccc34)[C@@H](O)[C@H]2O)c(=O)[nH]1 [TrpGc] | > 100 | 1.5 ± 0.5 | neither of them significantly altered | – | > 100 | > 100 | > 100 | – | – | – | – | – | – | – | – | – | – | > 100 | 3.65 | neither TrpGc nor compound 7 |
